Experimental data from patent publication US7432301B2, “Use of S-nitrosothiol signaling to treat disordered control of breathing” (University of Virginia Patent Foundation, priority 2001, dated 2008).
“Also recorded” adds a separate entry of the source. Values belong to the molecule of their own block, whether it stands above or below them.

Experiments:
[1] = test system: respiratory centers of the NTS; test: Minute ventilation (VE) by whole-body plethysmography after bilateral microinjection into the NTS of freely behaving, conscious rats; assay type: in vivo, rat; conditions: for increase in VE (minute ventilation): 1 nmol injected into NTS, conscious rats; for VE change from baseline: administered at NTS, dose not given (FIG. 1C); for onset/decay characteristics of the VE response: after injection into NTS, compared with hypoxia and return to normoxia (FIGS. 1A, 1B); for effect on VE: excess amount, n=3, P=NS
Excerpt: To test the hypothesis that SNOs stimulate respiratory centers of the NTS to increase VE, the ability of endogenous SNOs to increase VE in freely behaving, conscious rats using whole-body plethysmography was examined.
(§1) A dual cannula (22G; Plastics One) was implanted close to the nucleus of the solitary tract according to standard stereotaxic coordinates (−14.0 mm bregma, 0.5 mm off midline, 7.0 mm depth; see Paxinos, G. & Watson, C. The Rat Brain in Stereotaxic Coordinates (Academic, New York, 1986), figure 74) through a hole drilled into the occipital skull of male Sprague-Dawley rats (approximately 250 g; pentobarbital anaesthesia). Placement was confirmed histologically after protocol completion. After recovery for 48 h (return to normal feeding and sleep/waking patterns), breath-by-breath ventilation was measured using the barometric method previously described (Gozal et al., J. Appl. Physiol. 81, 2068-2077 (1996)) after simultaneous, bilateral 0.1-ul injections in the freely behaving animal.

[2] = Decay of CSNO isomers in rat brainstem homogenates; assay type: in vitro ADME
Procedure: To test the hypothesis that SNOs stimulate respiratory centers of the NTS to increase VE, the ability of endogenous SNOs to increase VE in freely behaving, conscious rats using whole-body plethysmography was examined. […] The L- and D-isomers of CSNO decayed at identical rates in rat brainstem homogenates (26% min-1 mg -1 protein each; P=not significant (NS)).
(§2) SNOs were prepared by acid nitrosation, titrated to pH 7.4 and maintained in EDTA in the dark at −80° C. until use to prevent decomposition. SNOs were detected by reduction/chemiluminescence as previously described (Fang et al., Biochem. Biophys. Res. Commun. 252, 535-540 (1998)). Briefly, samples were injected into 100 μM CuCl, 1 mM cysteine (pH 6; 50 8C) and purged with helium (grade 5; BOC Gases). Evolved NO was measured by chemiluminescence.

[3] = biological target: T1, γ-glutamyl transpeptidase (GGT) (Rattus norvegicus, UniProt P07314); test: Effect of GGT inhibition (acivicin pre-treatment of NTS) on ventilatory effects of SNOs and on ventilatory offset; assay type: in vivo; conditions: for SNO-stimulated VE increase after GGT inhibition: SNO 10 nmol microinjection after pre-treatment with acivicin 7.5 nmol (FIG. 2A)
T1 construct: from tissue; host or cells: nucleus tractus solitarius (brainstem) of living male Sprague-Dawley rats
T1 sequence (P07314 whole entry): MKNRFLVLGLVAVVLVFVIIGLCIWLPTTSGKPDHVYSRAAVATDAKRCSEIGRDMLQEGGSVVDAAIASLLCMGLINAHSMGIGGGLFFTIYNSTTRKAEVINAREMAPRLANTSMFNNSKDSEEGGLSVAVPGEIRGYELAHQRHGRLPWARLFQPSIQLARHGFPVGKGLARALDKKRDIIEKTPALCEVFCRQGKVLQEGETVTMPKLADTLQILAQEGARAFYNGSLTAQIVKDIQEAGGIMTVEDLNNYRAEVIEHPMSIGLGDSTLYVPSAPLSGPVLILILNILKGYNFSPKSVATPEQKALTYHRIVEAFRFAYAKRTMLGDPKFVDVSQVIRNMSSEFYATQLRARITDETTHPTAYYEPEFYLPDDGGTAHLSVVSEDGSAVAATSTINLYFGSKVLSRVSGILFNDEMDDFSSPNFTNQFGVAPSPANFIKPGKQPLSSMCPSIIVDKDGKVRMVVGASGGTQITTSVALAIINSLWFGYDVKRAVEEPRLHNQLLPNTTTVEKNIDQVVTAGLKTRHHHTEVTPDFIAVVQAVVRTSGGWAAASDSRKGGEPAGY
Excerpt: CGSNO (10 nmol) stimulated VE increases that were not modified by acivicin (P=NS; n=6). FIG. 2B represents the data generated from a hypoxic ventilatory response in GGT-deficient mice (+/+, wild type; +/−, heterozygotes; −/−, GGT-deficient). Lowest VE during the 30 s after cessation of hypoxia is expressed as percent change from pre-hypoxia baseline (P<0.0001; n=8 each group).
Endothelial transport and targeted neuronal biological activity of GSNO may depend, under certain circumstances, on biochemical modifications such as cleavage by GGT to form CGSNO. […] Moreover, normal ventilatory offset (that is, the gradual return to baseline of VE after recovery from hypoxia that prevents apnea) was inhibited by acivicin. […] This distinction may have pharmacological implications.
as §1

[4] = Relative stability of deoxygenated blood-derived SNOs; assay type: physicochemical
Procedure: Oxygenated blood drawn in an airtight syringe with GSH and EDTA (final concentrations 400 μM) by left ventricular puncture (rat) or peripherally (human) was maintained in 21% oxygen. Venous blood was reacted identically and was transferred to a hypoxia chamber under argon. Oxygen tension was measured electrochemically (Chirion). Samples underwent centrifugation (3,000 g for 5 min) followed by ultrafiltration (10K; Millipore), separation and selective ultraviolet photolysis (Jelight PS-3000-30; Laguna-Hills).
as §2

[5] = test system: blood pressure or heart rate; test: Hemodynamic effects (blood pressure, heart rate) of SNOs; assay type: in vivo; conditions: same species

Compound: N[C@@H](CSN=O)C(=O)NCC(=O)O [CGSNO, S-Nitrosocysteinyl glycine]
- SNO-stimulated VE increase after GGT inhibition [3]: not modified; also recorded: increases minute ventilation; also recorded: overcame this inhibition
- increase in VE (minute ventilation) [1]: marked increase; also recorded: equivalent increases
- VE change from baseline [1]: increases in VE
- onset/decay characteristics of the VE response [1]: identical to those observed during short exposure of the whole animal to hypoxia and return to normoxia
- stability relative to GSNO [4]: less stable than GSNO

Compound: N[C@@H](CCC(=O)N[C@@H](CS)C(=O)NCC(=O)O)C(=O)O [glutathione]
- effect on VE [1]: neither excess 8-bromocyclic GMP nor glutathione had any effect

Compound: N[C@H](CSN=O)C(=O)O [D-CSNO, S-nitroso-D-cysteine, reference compound]
- increase in VE (minute ventilation) [1]: no effect
- VE change from baseline [1]: without effect
- decay rate [2]: 26 % min-1 mg -1 protein

Compound: Nc1nc2c(nc(Br)n2[C@@H]2O[C@@H]3COP(=O)(O)O[C@H]3[C@H]2O)c(=O)[nH]1 [8-bromocyclic GMP, reference compound]
- effect on VE [1]: neither excess 8-bromocyclic GMP nor glutathione had any effect

Further lines, with some results ahead:

- decay rate [2]: 26 % min-1 mg -1 protein
Compound: N[C@@H](CSN=O)C(=O)O [L-CSNO, S-nitroso-L-cysteine]
- increase in VE (minute ventilation) [1]: equivalent increases
- VE change from baseline [1]: increases in VE

- effect on GSNO-mediated increases in VE ([3]; NTS pre-treatment with the inhibitor): attenuated
- effect on normal ventilatory offset (gradual return of VE to baseline after hypoxia) ([3]; recovery from hypoxia): inhibited
Compound: N[C@H](C(=O)O)[C@@H]1CC(Cl)=NO1 [acivicin, reference compound]

- SNO-stimulated VE increase after GGT inhibition [3]: abolished
Compound: N[C@@H](CCC(=O)N[C@@H](CSN=O)C(=O)NCC(=O)O)C(=O)O [GSNO, S-nitrosoglutathione]
- increase in VE (minute ventilation) [1]: equivalent increases
- VE change from baseline [1]: increases in VE; also recorded: dramatically increase
- onset/decay characteristics of the VE response [1]: identical to those for recovery from hypoxia
- effects on blood pressure or heart rate (hemodynamic effects) [5]: no effects; also recorded: not reproduced
